Measurements reported in PubChem BioAssay (NCI).
Values joined by “and” are separate entries in the source; they are usually repeats but may differ in a detail not shown here. Equal values may be shown once.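 Results reflect a 48-hour exposure of cells in 96-well plates to compound at five concentrations. Abbreviation: GI50, concentration required for 50% inhibition of growth. Definition used: TGI = concentration required for complete inhibition of growth.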

The compounds below were run on A498 renal (assay: DTP human tumour cell line panel, 48 h).

Row | Structure (SMILES) | GI50 | TGI
1 | CC(=O)Nc1ccc(S(=O)(=O)N2C(=O)CCC2C(=O)Nc2ccc(Br)cc2)cc1 (stereo not given) | 0.435 µM | 4.71 µM
2 | CCCCC#CC1=C(Br)C(=O)OC1 | 18.1 µM | 33.5 µM

The compounds below were run on SK-MEL-5 melanoma (assay: DTP human tumour cell line panel, 48 h).

Row | Structure (SMILES) | GI50 | TGI
3 | COc1ccc(Sc2[nH]c(C(C)=O)c3ccccc23)cc1 | 12.5 µM | 24.9 µM
4 | COc1cccc2c1C(=O)c1c(O)c3c(c(O)c1C2=O)C[C@@](O)(C(=O)CO)C[C@@H]3OC1CC(N)CC(C)O1 (stereo not given in full) | 0.00743 µM and 0.025 µM | 0.145 µM and 0.203 µM
5 | CNCc1ccccc1-c1csc([C@@H](C)Nc2nc(C)nc3cc(OC)c(OC)cc23)c1 | 1.72 µM | 3.09 µM
6 | Cn1cc(C2=C(c3ccc(N)cc3)C(=O)NC2=O)c2ccccc21 | > 17.8 µM | > 25 µM
7 | Cc1cc(Cl)cc(OCCn2cc(F)cn2)c1-c1nc(N)nc2c1CN(C(=O)NCC(C)(F)F)C2 | 0.179 µM | > 100 µM
8 | COc1cccc(F)c1C(=O)c1cnc(NC2CCN(S(C)(=O)=O)CC2)nc1N | 2.06 µM | > 23.3 µM
9 | COC(=O)c1ccc2c(c1)nc(NC(=O)c1ccccc1)n2CCCc1ccccc1 | 2.13 µM | 5.87 µM
10 | NC(=O)/C=C/C(=O)c1c(Cl)cccc1Cl | 1.4 µM | 2.7 µM
11 | CC1(C)N=C(N)N=C(N)N1c1ccc(CCCCc2ccc(Cl)cc2S(=O)(=O)F)c(Cl)c1 | 0.552 µM | 12.6 µM
12 | CC(=O)Nc1ccc(S(=O)(=O)N2C(=O)CCC2C(=O)Nc2ccc(Br)cc2)cc1 (stereo not given) | 1.56 µM | 4.87 µM
13 | CCCCC#CC1=C(Br)C(=O)OC1 | 0.118 µM | 0.366 µM

What follows are compounds tested on COLO 205 colon (assay: DTP human tumour cell line panel, 48 h).

Row | Structure (SMILES) | GI50 | TGI
14 | COc1ccc(Sc2[nH]c(C(C)=O)c3ccccc23)cc1 | 0.174 µM | 0.398 µM
15 | COc1cccc2c1C(=O)c1c(O)c3c(c(O)c1C2=O)C[C@@](O)(C(=O)CO)C[C@@H]3OC1CC(N)CC(C)O1 (stereo not given in full) | 0.0823 µM | 0.389 µM and 0.351 µM
16 | CNCc1ccccc1-c1csc([C@@H](C)Nc2nc(C)nc3cc(OC)c(OC)cc23)c1 | 1.77 µM | 3.59 µM
17 | Cn1cc(C2=C(c3ccc(N)cc3)C(=O)NC2=O)c2ccccc21 | 11.6 µM | > 25 µM
18 | Cc1cc(Cl)cc(OCCn2cc(F)cn2)c1-c1nc(N)nc2c1CN(C(=O)NCC(C)(F)F)C2 | 0.0395 µM | 1.19 µM
19 | COc1cccc(F)c1C(=O)c1cnc(NC2CCN(S(C)(=O)=O)CC2)nc1N | 1.49 µM | 5.69 µM
20 | COC(=O)c1ccc2c(c1)nc(NC(=O)c1ccccc1)n2CCCc1ccccc1 | 3.89 µM | > 100 µM
21 | NC(=O)/C=C/C(=O)c1c(Cl)cccc1Cl | 0.191 µM | 0.355 µM
22 | CC1(C)N=C(N)N=C(N)N1c1ccc(CCCCc2ccc(Cl)cc2S(=O)(=O)F)c(Cl)c1 | 0.522 µM | 2.53 µM
23 | CC(=O)Nc1ccc(S(=O)(=O)N2C(=O)CCC2C(=O)Nc2ccc(Br)cc2)cc1 (stereo not given) | 3.01 µM | 11.7 µM
24 | CCCCC#CC1=C(Br)C(=O)OC1 | 2.66 µM | > 22.2 µM

These compounds were tested on EKVX NSCLC (assay: DTP human tumour cell line panel, 48 h).

Row | Structure (SMILES) | GI50 | TGI
25 | COc1ccc(Sc2[nH]c(C(C)=O)c3ccccc23)cc1 | 8.13 µM | 26 µM
26 | COc1cccc2c1C(=O)c1c(O)c3c(c(O)c1C2=O)C[C@@](O)(C(=O)CO)C[C@@H]3OC1CC(N)CC(C)O1 (stereo not given in full) | 0.152 µM | 0.839 µM and 0.61 µM
27 | CNCc1ccccc1-c1csc([C@@H](C)Nc2nc(C)nc3cc(OC)c(OC)cc23)c1 | 1.61 µM | 12.9 µM
28 | CCCCC#CC1=C(Br)C(=O)OC1 | 3.79 µM | 10.7 µM

Each compound was assayed on SR leukemia (assay: DTP human tumour cell line panel, 48 h).

Row | Structure (SMILES) | GI50 | TGI
29 | COc1ccc(Sc2[nH]c(C(C)=O)c3ccccc23)cc1 | 1.35 µM | 15.2 µM
30 | COc1cccc2c1C(=O)c1c(O)c3c(c(O)c1C2=O)C[C@@](O)(C(=O)CO)C[C@@H]3OC1CC(N)CC(C)O1 (stereo not given in full) | 0.00548 µM and 0.02 µM | 0.492 µM and 0.632 µM
31 | CNCc1ccccc1-c1csc([C@@H](C)Nc2nc(C)nc3cc(OC)c(OC)cc23)c1 | 0.624 µM | 2.38 µM
32 | Cn1cc(C2=C(c3ccc(N)cc3)C(=O)NC2=O)c2ccccc21 | 9.43 µM | > 25 µM
33 | Cc1cc(Cl)cc(OCCn2cc(F)cn2)c1-c1nc(N)nc2c1CN(C(=O)NCC(C)(F)F)C2 | 0.0495 µM | > 100 µM
34 | COc1cccc(F)c1C(=O)c1cnc(NC2CCN(S(C)(=O)=O)CC2)nc1N | 0.644 µM | > 11.8 µM
35 | COC(=O)c1ccc2c(c1)nc(NC(=O)c1ccccc1)n2CCCc1ccccc1 | 2.54 µM | > 100 µM
36 | NC(=O)/C=C/C(=O)c1c(Cl)cccc1Cl | 0.224 µM | 1.37 µM
37 | CC1(C)N=C(N)N=C(N)N1c1ccc(CCCCc2ccc(Cl)cc2S(=O)(=O)F)c(Cl)c1 | 0.271 µM | 26.2 µM
38 | CC(=O)Nc1ccc(S(=O)(=O)N2C(=O)CCC2C(=O)Nc2ccc(Br)cc2)cc1 (stereo not given) | 1.41 µM | 5.38 µM
39 | CCCCC#CC1=C(Br)C(=O)OC1 | 0.36 µM | > 100 µM

What follows are compounds tested on MCF7 breast (assay: DTP human tumour cell line panel, 48 h).

Row | Structure (SMILES) | GI50 | TGI
40 | COc1ccc(Sc2[nH]c(C(C)=O)c3ccccc23)cc1 | 12.2 µM | 24.6 µM
41 | COc1cccc2c1C(=O)c1c(O)c3c(c(O)c1C2=O)C[C@@](O)(C(=O)CO)C[C@@H]3OC1CC(N)CC(C)O1 (stereo not given in full) | 0.00536 µM | 3.71 µM and 1.93 µM
42 | CNCc1ccccc1-c1csc([C@@H](C)Nc2nc(C)nc3cc(OC)c(OC)cc23)c1 | 1.44 µM | 3.19 µM
43 | Cn1cc(C2=C(c3ccc(N)cc3)C(=O)NC2=O)c2ccccc21 | 13.7 µM | > 25 µM
44 | Cc1cc(Cl)cc(OCCn2cc(F)cn2)c1-c1nc(N)nc2c1CN(C(=O)NCC(C)(F)F)C2 | 0.0339 µM | > 100 µM
45 | COc1cccc(F)c1C(=O)c1cnc(NC2CCN(S(C)(=O)=O)CC2)nc1N | 0.326 µM | > 25 µM
46 | COC(=O)c1ccc2c(c1)nc(NC(=O)c1ccccc1)n2CCCc1ccccc1 | 1.78 µM | > 100 µM
47 | NC(=O)/C=C/C(=O)c1c(Cl)cccc1Cl | 0.444 µM | 1.79 µM
48 | CC1(C)N=C(N)N=C(N)N1c1ccc(CCCCc2ccc(Cl)cc2S(=O)(=O)F)c(Cl)c1 | 0.327 µM | 9.49 µM
49 | CC(=O)Nc1ccc(S(=O)(=O)N2C(=O)CCC2C(=O)Nc2ccc(Br)cc2)cc1 (stereo not given) | 1.48 µM | 11 µM
50 | CCCCC#CC1=C(Br)C(=O)OC1 | 1.03 µM | 8.08 µM
